This note sets out measurements from patent publication US20260092061A1, “COMPOUNDS FOR TARGETED PROTEIN DEGRADATION” (Amphista Therapeutics Limited, priority 2022, published 2026).

Read-outs that look alike come from different tables or passages of the source.

The assay concerns the target T1, BRD9 (Homo sapiens, UniProt Q9H8M2).
T1 sequence (Q9H8M2 1-597): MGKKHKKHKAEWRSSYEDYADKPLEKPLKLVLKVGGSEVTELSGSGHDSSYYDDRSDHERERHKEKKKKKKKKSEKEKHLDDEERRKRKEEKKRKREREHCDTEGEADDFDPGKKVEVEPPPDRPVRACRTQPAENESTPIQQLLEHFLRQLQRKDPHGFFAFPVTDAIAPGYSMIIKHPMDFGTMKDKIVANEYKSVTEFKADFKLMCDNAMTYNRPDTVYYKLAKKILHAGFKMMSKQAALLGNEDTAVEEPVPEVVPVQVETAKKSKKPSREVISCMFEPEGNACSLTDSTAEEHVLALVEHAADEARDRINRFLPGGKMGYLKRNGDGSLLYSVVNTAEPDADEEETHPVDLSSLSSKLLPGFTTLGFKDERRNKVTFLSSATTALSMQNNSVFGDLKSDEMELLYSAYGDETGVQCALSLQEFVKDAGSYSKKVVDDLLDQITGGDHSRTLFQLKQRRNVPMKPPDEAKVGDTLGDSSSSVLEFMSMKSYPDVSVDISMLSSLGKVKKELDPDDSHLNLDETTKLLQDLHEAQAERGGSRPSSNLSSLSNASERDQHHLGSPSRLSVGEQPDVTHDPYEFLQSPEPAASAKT
Nature of the assay: Degradation of BRD9 (IF), immunofluorescence in MV4-11 cells, 24 hours (Assay Protocol 2). The class given is cell-based. Further details: A suspension of MV4-11 cells (ATCC CRL-9591) was prepared; host or cells: MV4-11. To be noted: BRD9 degradation; for DC50: read-out: DC50. The essentials:
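MV4-11 cells treated with compound 24 h at 37° C., then fixed, permeabilised and immunostained for BRD9 (anti-BRD9 E4Q3F, Alexa 647 secondary, Hoechst counterstain). High-content imaging quantified nuclear BRD9 signal; % BRD9 remaining normalised to DMSO and 100 nM CFT-8634 controls.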

Where [1] appears, read: MV4-11, Assay protocol 2, read-out: Dmax.

The term DC50 denotes the concentration giving 50% degradation. In general, Dmax refers to the greatest extent of degradation seen. In the case of `CC[C@@H]1c2cccc(CN3CCN(Cc4c(OC)cc(-c5cn(C)c(=O)c(C)c5C)cc4OC)CC34CC4)c2CCN1C(=O)/C(C#N)=C/C(C)(C)CF` (single isomer, unassigned) [Compound C93, (E/Z)-2-(5-((7-(2,6-dimethoxy-4-(1,4,5-trimethyl-6-oxo-1,6-dihydropyridin-3-yl)benzyl)-4,7-diazaspiro[2.5]octan-4-yl)methyl)-1-ethyl-1,2,3,4-tetrahydroisoquinoline-2-carbonyl)-5-fluoro-4,4-dimethylpent-2-enenitrile], for the setting “Assay protocol 2”, the DC50 was less than 1.25 nM. The Dmax under setting [1] was more than 75%.
`COc1cc(-c2cn(C)c(=O)c(C)c2C)cc(OC)c1CN1CCN(Cc2cccc3c2CCN(C(=O)/C(C#N)=C/C(C)(C)CF)C3C(C)C)C2(CC2)C1` (single isomer, unassigned) [Compound C77, (E/Z)-2-(5-((7-(2,6-dimethoxy-4-(1,4,5-trimethyl-6-oxo-1,6-dihydropyridin-3-yl)benzyl)-4,7-diazaspiro[2.5]octan-4-yl)methyl)-1-isopropyl-1,2,3,4-tetrahydroisoquinoline-2-carbonyl)-5-fluoro-4,4-dimethylpent-2-enenitrile]: under “Assay protocol 2”, the Dmax entry is reported as “+++ (+++ = ≥75%)” and the 50% degradation concentration (DC50) is less than 1.25 nM.
As for `COc1cc(-c2cn(C)c(=O)c(C)c2C)cc(OC)c1CN1CCN(Cc2ccc3c(c2)[C@@H](C)N(C(=O)/C(C#N)=C/C(C)(C)CN2CCOCC2)CC3)C2(CC2)C1` (single isomer, unassigned) [Compound C40, (E/Z)-2-(7-((7-(2,6-dimethoxy-4-(1,4,5-trimethyl-6-oxo-1,6-dihydropyridin-3-yl)benzyl)-4,7-diazaspiro[2.5]octan-4-yl)methyl)-1-methyl-1,2,3,4-tetrahydroisoquinoline-2-carbonyl)-4,4-dimethyl-5-morpholinopent-2-enenitrile], the half-maximal degradation concentration (DC50) (Assay protocol 2) lay in the range of 1.25 to 10 nM. Moreover, the greatest degradation seen (Dmax) under setting [1] was in the range of 70 to 75%.
The like results for `COc1cc(-c2cn(C)c(=O)c(C)c2C)cc(OC)c1CN1CCC(Cc2ccc3c(c2)C(C)N(C(=O)/C(C#N)=C/C(C)(C)C)CC3)CC1(C)C` (stereo not shown) [Compound C53] were, in that order, 25 to 1000 nM and 40 to 70%.
Take `COc1cc(-c2cn(C)c(=O)c(C)c2C)cc(OC)c1CN1CCN(C(=O)COCCOc2ccc3c(c2)C(C)N(C(=O)/C(C#N)=C/c2nccs2)CC3)CC1` (mixture of isomers) [Compound B83, (E/Z)-2-(7-(2-(2-(4-(2,6-dimethoxy-4-(1,4,5-trimethyl-6-oxo-1,6-dihydropyridin-3-yl)benzyl)piperazin-1-yl)-2-oxoethoxy)ethoxy)-1-methyl-1,2,3,4-tetrahydroisoquinoline-2-carbonyl)-3-(thiazol-2-yl)acrylonitrile]: the 50% degradation concentration (DC50) (Assay protocol 2) is 1.25 to 10 nM. Besides, the Dmax under setting [1] was more than 75%.
The like results for `COc1cc(-c2cn(C)c(=O)c(C)c2C)cc(OC)c1CN1CCN(Cc2cccc3c2CCN(C(=O)/C(C#N)=C/C(C)(C)CF)C3C(C)C)C2(CC2)C1` (single isomer, unassigned) [Compound C76, (E/Z)-2-(5-((7-(2,6-dimethoxy-4-(1,4,5-trimethyl-6-oxo-1,6-dihydropyridin-3-yl)benzyl)-4,7-diazaspiro[2.5]octan-4-yl)methyl)-1-isopropyl-1,2,3,4-tetrahydroisoquinoline-2-carbonyl)-5-fluoro-4,4-dimethylpent-2-enenitrile] were, in that order, 1.25 to 10 nM and 70 to 75%.
For `COc1cc(-c2cn(C)c(=O)c(C)c2C)cc(OC)c1CN1CCN(Cc2cccc3c2CCN(C(=O)/C(C#N)=C/C(C)(C)C)C3C)C(C)(C)C1` (mixture of isomers) [Compound B98, (E/Z)-2-(5-((4-(2,6-dimethoxy-4-(1,4,5-trimethyl-6-oxo-1,6-dihydropyridin-3-yl)benzyl)-2,2-dimethylpiperazin-1-yl)methyl)-1-methyl-1,2,3,4-tetrahydroisoquinoline-2-carbonyl)-4,4-dimethylpent-2-enenitrile] the same measures were 10 to 25 nM and more than 75%.
The like results for `COc1cc(-c2cn(C)c(=O)c(C)c2C)cc(OC)c1CN1CCN(Cc2cccc3c2CCN(C(=O)/C(C#N)=C/C2(C)CCOCC2)[C@H]3C)C2(CC2)C1` (single isomer, unassigned) [Compound B194, (E/Z)-2-(5-((7-(2,6-dimethoxy-4-(1,4,5-trimethyl-6-oxo-1,6-dihydropyridin-3-yl)benzyl)-4,7-diazaspiro[2.5]octan-4-yl)methyl)-1-methyl-1,2,3,4-tetrahydroisoquinoline-2-carbonyl)-3-(4-methyltetrahydro-2H-pyran-4-yl)acrylonitrile] were, in that order, 1.25 to 10 nM and 40 to 70%.
`COc1cc(-c2cn(C)c(=O)c(C)c2C)cc(OC)c1CN1CCN(Cc2cccc3c2CCN(C(=O)/C(C#N)=C/c2cccc(Br)n2)C3C(C)C)CC1` (mixture of isomers) [Compound C21, (E/Z)-3-(6-bromopyridin-2-yl)-2-(5-((4-(2,6-dimethoxy-4-(1,4,5-trimethyl-6-oxo-1,6-dihydropyridin-3-yl)benzyl)piperazin-1-yl)methyl)-1-isopropyl-1,2,3,4-tetrahydroisoquinoline-2-carbonyl)acrylonitrile]: under “Assay protocol 2”, the DC50 lay within 1.25 to 10 nM. Also, the greatest degradation seen (Dmax) under setting [1] was 70 to 75%.
For `COc1cc(-c2cn(C)c(=O)c(C)c2C)cc(OC)c1CN1C[C@H](C)N(Cc2cccc3c2CCN(C(=O)/C(C#N)=C/c2cccc(Br)n2)C3C)[C@@H](C)C1` (mixture of isomers) [Compound B110, (E/Z)-3-(6-bromopyridin-2-yl)-2-(5-(((2S,6S)-4-(2,6-dimethoxy-4-(1,4,5-trimethyl-6-oxo-1,6-dihydropyridin-3-yl)benzyl)-2,6-dimethylpiperazin-1-yl)methyl)-1-methyl-1,2,3,4-tetrahydroisoquinoline-2-carbonyl)acrylonitrile] the same measures were 25 to 1000 nM and 40 to 70%.
As to `COc1cc(-c2cn(C)c(=O)c(C)c2C)cc(OC)c1CN(C)C1CCN(C(=O)/C(C#N)=C/c2cccc(C(F)(F)F)n2)CC1` [BRD9aa, (E/Z)-2-(4-((2,6-dimethoxy-4-(1,4,5-trimethyl-6-oxo-1,6-dihydropyridin-3-yl)benzyl)(methyl)amino)piperidine-1-carbonyl)-3-(6-(trifluoromethyl)pyridin-2-yl)acrylonitrile], the Dmax (MV4-11, Table 4, determined according to Assay Protocol 2, read-out: Dmax^2) is more than 70%.
As for `COc1cc(-c2cn(C)c(=O)c(C)c2C)cc(OC)c1CN1CCC(COc2cccc3c2CCN(C(=O)/C(C#N)=C/c2cccc(Br)n2)C3C)CC1` (mixture of isomers) [Compound B95, (E/Z)-3-(6-bromopyridin-2-yl)-2-(5-((1-(2,6-dimethoxy-4-(1,4,5-trimethyl-6-oxo-1,6-dihydropyridin-3-yl)benzyl)piperidin-4-yl)methoxy)-1-methyl-1,2,3,4-tetrahydroisoquinoline-2-carbonyl)acrylonitrile], the DC50 (Assay protocol 2) is less than 1.25 nM. Also, the Dmax under setting [1] fell in the range of 70 to 75%.
The like results for `COc1cc(-c2cn(C)c(=O)c(C)c2C)cc(OC)c1CN1C[C@H](C)N(Cc2cccc3c2CCN(C(=O)/C(C#N)=C/C(C)(C)C)C3C)[C@@H](C)C1` (mixture of isomers) [Compound B100, (E/Z)-2-(5-(((2S,6S)-4-(2,6-dimethoxy-4-(1,4,5-trimethyl-6-oxo-1,6-dihydropyridin-3-yl)benzyl)-2,6-dimethylpiperazin-1-yl)methyl)-1-methyl-1,2,3,4-tetrahydroisoquinoline-2-carbonyl)-4,4-dimethylpent-2-enenitrile] were, in that order, 25 to 1000 nM and 70 to 75%.
For `COc1cc(-c2cn(C)c(=O)c(C)c2C)ccc1OC1CCC(Cc2cccc3c2CCN(C(=O)/C(C#N)=C/C(C)(C)N2CCN(C)CC2)C3C(C)C)CC1` (stereo not shown) [Compound C85] the same measures were 25 to 1000 nM and more than 75%.
`CCC[C@@H]1c2cccc(CN3CCN(Cc4c(OC)cc(-c5cn(C)c(=O)c(C)c5C)cc4OC)CC34CC4)c2CCN1C(=O)/C(C#N)=C/C(C)(C)C` (single isomer, unassigned) [Compound C101, (E/Z)-2-(5-((7-(2,6-dimethoxy-4-(1,4,5-trimethyl-6-oxo-1,6-dihydropyridin-3-yl)benzyl)-4,7-diazaspiro[2.5]octan-4-yl)methyl)-1-propyl-1,2,3,4-tetrahydroisoquinoline-2-carbonyl)-4,4-dimethylpent-2-enenitrile]: the 50% degradation concentration (DC50) (Assay protocol 2) is 25 to 1000 nM. For the same compound, the greatest degradation seen (Dmax) under setting [1] was in the range of 40 to 70%.
For `COc1cc(-c2cn(C)c(=O)c(C)c2C)cc(OC)c1CN1CCN(Cc2cccc3c2CCN(C(=O)/C(C#N)=C/c2cccc(F)c2F)C3C)CC1` (mixture of isomers) [Compound B91, (E/Z)-3-(2,3-difluorophenyl)-2-(5-((4-(2,6-dimethoxy-4-(1,4,5-trimethyl-6-oxo-1,6-dihydropyridin-3-yl)benzyl)piperazin-1-yl)methyl)-1-methyl-1,2,3,4-tetrahydroisoquinoline-2-carbonyl)acrylonitrile] the same measures were 1.25 to 10 nM and 40 to 70%.
